Source: US20250346938A1, “ATP-DEPENDENT C-TERMINAL MODIFICATION OF POLYPEPTIDES” (Wisconsin Alumni Research Foundation, priority 2024, published 2025)

How the values were obtained:
M ccB [1] = assay: MccB-catalyzed C-terminal thioesterification / Cys ligation of TeCH-tag fusion proteins (intact protein LC-MS); type: biochemical, E. coli
Description: M ccB-mediated ligation of GFP-MccA-N7G protein substrates. GFP-M ccA-N7G variant (50 μM) was incubated with 5 μM MccB, 5 mM ATP, and the appropriate concentration of cysteine or Mesna/TCEP in reaction buffer (25 mM Tris pH 8.0, 10 mM M gCl2). Reactions were incubated at room temperature for the indicated times. For labeling time course experiments, reactions were quenched with the addition of an equivalent volume of 0.6% TFA.

M ccB [2] = assay: One-pot expressed protein ligation of GFP-TeCH with N-terminal Cys peptide CGAGS-azidoAla; type: biochemical, E. coli; settings: MccB, ATP, Mesna
LjM ccB = assay: C-terminal thioesterification of MccA-N7G peptides by L. johnsonii MccB (LC-MS); type: biochemical; settings: LjMccB, ATP, Mesna, within 16 h
Ubc9 = molecular target: T1, Ubc9 (Homo sapiens, UniProt P63279); assay: Ubc9-catalyzed lysine acylation (LACE) of GFP-LACE-tag with MccB-generated thioesters; type: biochemical
T1 construct: Ubc9; Calc: 20,632 Da (M et loss); Observed: 20,632 Da, 20,810 Da (N-gluconylation); made in house; host or cells: E. coli BL21 (DE3)
Description: For larger scale synthesis of MLGLRGG-Mes (HsLACE3-M es) (SEQ ID NO: 88), identical reaction conditions and reagent concentrations were used in a volume of […]. Reactions were quenched by addition of trifluoroacetic acid (TFA) to 1% final concentration and were desalted on SOLA HRP C18 solid-phase extraction columns (10 mg format, Thermo Fisher Scientific). Columns were conditioned with 100% acetonitrile ([…]) and equilibrated with 0.1% TFA (2× 1 mL). The acidified sample was then loaded onto the column. The column was washed with 0.1% TFA (2×1 mL) and eluted with 80% acetonitrile/20% water ([…]). The eluted peptide thioester was dried in a vacuum concentrator (SpeedV ac SPD 130DLX, Thermo Fisher Scientific) and dissolved in water. The recovered peptide was quantified using the Pierce Quantitative Fluorometric Peptide A ssay Kit (Thermo Fisher Scientific). Typical recovery from desalting was 50%.
Lysine acylation using conjugating enzymes (LACE) of GFP-LACE-tag using M ccB-generated thioesters. GFP-LACE-tag ([…]), U bc9 ([…]), MLGLRGG-Mes (SEQ ID NO: 88) or other C-terminal thioesters as indicated in the text ([…]) were incubated in reaction buffer (100 mM HEPES, pH 8.0, 50 mM K CI) at 30° C. for 16 h. For pH optimization, reaction buffer was either 100 mM HEPES, pH 7.6, 50 mM KCl or 100 mM HEPES, pH 8.0, 50 mM KCl. […]

E. coli M ccB [3] = assay: Enzyme-coupled pyrophosphate (PPi) release assay, E. coli MccB; type: biochemical
Text: FIG. 31. Enzyme-coupled pyrophosphate assay for detection of M ccB-catalyzed pyrophosphate release. M ccB-catalyzes release of pyrophosphate, which is converted to phosphate by inorganic pyrophosphatase (PPiase). Purine nucleoside phosphorylase (PN Pase) uses phosphate as a substrate to convert 2-amino-6-mercapto-7-methylpurine ribonucleoside (M ESG) to ribose 1-phosphate and 2-amino-6-mercapto-7-methylpurine, which absorbs at 360 nm.
Purine nucleoside phosphorylase (PNP)/inorganic pyrophosphate (IP)-coupled kinetic assays. The kinetics of M ccB-catalyzed adenylation were characterized using an enzyme-coupled assay for detecting formation of pyrophosphate EnzCheck Pyrophosphate Assay Kit (Thermo Fisher Scientific) (FIG. 31). To screen M ccB for adenylation activity with C-terminal variants of MccA, 5 μM of the appropriate MccB variant was incubated with 0.25 mM of each M ccA variant in a reaction with 0.25 mM ATP, 5 mM M gCl2, 0.5 U/mL purine nucleoside phosphorylase (PNP), and 0.5 U/mL inorganic pyrophosphatase (IP). To screen E. coli, H. pylori, and L. johnsonii M ccB homologs for adenylation activity with MccA homologs, 5 μM of the appropriate MccB enzyme was incubated with 0.25 mM of each M ccA variant in a reaction with 0.25 mM ATP, 5 mM M gCI2, 0.5 U/mL purine nucleoside phosphorylase (PNP), and 0.5 U/mL inorganic pyrophosphatase (IP). Reactions containing HpM ccA-N7G and LjM ccA-N 7G peptides also contained 5 mM M esna and 5 mM TCEP. To collect steady-state kinetics data for individual peptide substrates, the peptide concentration was varied from 0-600 μM in a reaction with 5 μM MccB, 0.25 mM ATP, 5 mM MgCl2, 0.5 U/mL purine nucleoside phosphorylase (PNP), and 0.5 U/mL inorganic pyrophosphatase (IP). […] We therefore repeated measurements for the MccA-N7G peptide using an MccB concentration of […] and a substrate concentration range from 0-100 μM. Reactions were initiated with the addition of M ccB and absorbance at 360 nm was monitored using a Tecan Infinite M 200 plate reader. Initial rates of pyrophosphate production were calculated based on the initial rate of absorbance change and the resulting purine analog extinction coefficient (11,000 M-1 cm-1). Reactions were carried out in triplicate and data analysis was performed using GraphPad Prism 10.

E. coli M ccB [4] = assay: LC-TOF MS analysis of MccB-catalyzed AMPylation of MccA variants; type: biochemical; settings: HPLC-MS assay
Description: LC-TOF MS analysis of M ccB reactions with synthetic peptide substrates. […] Reactions were incubated for 16 hours at room temperature and quenched with addition of an equivalent volume of 0.6% TFA. These reaction conditions were used for M ccBs from E. coli, H. pylori, L. johnsonii, and H. somni.
LC-TOF MS analysis of M ccB-catalyzed N-AM Pylation of M ccA positional scanning peptide library. MccA variants were synthesized individually in-house (according to Solid-phase peptide synthesis) or were purchased from Peptide2.0. […] Reactions were incubated for 16 hours at room temperature and quenched with addition of an equivalent volume of 0.6% TFA. […] Percent conversion was calculated using peak areas from substrate and product EICs. Raw data are available in the Dryad repository at DOI: 10.5061/dryad.c59zw3rkb.

M ccB [5] = assay: MccB-catalyzed native chemical ligation of MccA-N7G with Mesna and Cys-Trp; type: biochemical, E. coli; settings: both Mesna and Cys-Trp in the reaction, 4 hours
Description: MccA-N7G thioester exchange with N-terminal Cys peptide. C-terminal thioester was prepared in reactions containing 250 μM MccA-N7G, 5 μM MccB, 5 mM ATP, and 5 mM Mesna/TCEP in reaction buffer (25 mM Tris pH 8.0, 10 mM M gCl2). A fter incubating for 16 hours at room temperature, 20 mM Cys-Trp peptide was added to each reaction and incubated for an additional 4 hours. Reactions were quenched with the addition of an equivalent volume of 0.6% TFA.

[6] = molecular target: T2, MccA-N7G (E. coli TeCH-tag peptide MRTGNAG)
T2 chain: MRTGNAG

T1 sequence (P63279 with tags, fused parts or gaps): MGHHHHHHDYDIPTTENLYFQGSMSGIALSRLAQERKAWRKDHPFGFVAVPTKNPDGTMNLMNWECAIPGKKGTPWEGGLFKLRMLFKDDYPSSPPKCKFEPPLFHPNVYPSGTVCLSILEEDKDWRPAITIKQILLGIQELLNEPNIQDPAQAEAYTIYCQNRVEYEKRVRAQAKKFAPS
LjM ccB, sequence (as listed by the source): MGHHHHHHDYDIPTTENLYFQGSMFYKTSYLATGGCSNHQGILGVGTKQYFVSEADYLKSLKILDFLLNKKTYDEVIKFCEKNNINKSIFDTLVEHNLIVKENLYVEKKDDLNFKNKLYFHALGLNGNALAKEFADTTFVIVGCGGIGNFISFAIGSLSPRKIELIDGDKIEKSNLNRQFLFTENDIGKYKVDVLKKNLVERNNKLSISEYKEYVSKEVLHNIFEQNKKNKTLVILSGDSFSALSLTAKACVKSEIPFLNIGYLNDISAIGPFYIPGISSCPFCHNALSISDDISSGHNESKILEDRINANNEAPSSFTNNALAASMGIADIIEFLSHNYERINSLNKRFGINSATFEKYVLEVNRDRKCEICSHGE

## GFP-TeCH-tag: Cys-free GFP fused to MccA-N7G TeCH-tag (SEQ ID NO: 73)
M ccB [1]; 5 mM Mesna, 5 mM ATP, 30 min
  conversion to the Mesna thioester: near-quantitative
M ccB [1]; ATP (5 mM), Cys (5 mM), 1 h
  Cys ligation yield: 99%
M ccB [1]; ATP (5 mM), Mesna (5 mM)
  time to complete conversion to thioester: 1 h
M ccB [2]
  modification with azide-bearing peptide CGAGS-3-azido-Ala: quantitatively modified

## MHRIM KG (MHRIMKG) [LjM ccA-N7G]
LjM ccB
  conversion to C-terminal thioester, yield: > 97%

## MLGLRGG (listed as Histophilus somni) [HsLACE3]
Ubc9; HsMccB-generated thioester after C18 spin column thiol removal
  modification of the LACE-tagged protein: 94%
Ubc9; one-pot and telescoped HsMccB/Ubc9 reactions
  conversion to modified GFP-LACE: 1-15%

## MRTGNAG [MccA-N7G]
E. coli M ccB [3]; MccA C-terminal variant as substrate for MccB
  stimulation of PPi formation: substantial stimulation
E. coli M ccB [3]; initial fitting, 5 μM MccB, peptide 0-600 μM, pyrophosphate release, read-out: apparent KM
  Km: 8.9 µM
E. coli M ccB [4]
  formation of stably AMPylated product: no stably A M Pylated product was observed
M ccB [5]
  conversion to MccA-N7G-CW, yield: 82%

B1: E. coli MccB (protein)
chain: MGHHHHHHDYDIPTTENLYFQGSMDYILGRYVKIARYGSGGLVGGGGKEQYVEDLALWENIIKTAYCFITPSSYTAALETVNIPEKDFSNCFRFLKENFFIIPSEYNNSTENNRYSRNFLHYQSYGANPVLVQDKLKDAKVVILGCGGIGNHVSVILATSGIGEIILIDNDQIENTNLTRQVLFSENDVGKNKTEVIKRELLKRNSEISVSEIALNINDYTDLHKVPEADIWVVSADHPFNLINWVNKYCVRANQPYINAGYVNDIAVFGPLYVPGKTGCYECQKVVADLYGSEKENIDHKIKLINSRFKPATFAPVNNVAAALCAADVIKFIGKYSEPLSLNKRIGIWSDEIKIHSQNMGRSPVCSVCGNRM
[6]
  apparent KM, enzyme-coupled pyrophosphate release assay (steady-state kinetics): 8.9 ± 0.9 µM
